The source of these data is patent US12024510B2, “Pyrazolopyridine-diamides, their use as insecticide and processes for preparing the same” (PI INDUSTRIES LTD., priority 2017, dated 2024).

Common to all, as to type: in vivo
One assay relates to Plutella xylostella. As to the kind of experiment: whole plant or invertebrate. Particulars: foliar, cabbage leaf dip, second instar larvae, dead and moribund combined, 72 h after release. The method in brief: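 Compounds milled with zirconia beads into surfactant dispersion (500 ppm stock), diluted in 0.01% Triton-X. Cabbage leaves dipped 10 s, shade-dried 20 min; one second-instar larva per cell, 25 °C, 70% RH. Mortality (dead plus moribund) scored at 72 h.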

For another assay, the system named is Helicoverpa armigera. As to the kind of experiment: Helicoverpa armigera diet incorporation method. Particulars: third instar larvae, dead and moribund combined, 96 h after release. The method in brief: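 500 ppm stock of compound milled with surfactant and zirconia beads to average particle size below 2 μm, dispersed in DM water, diluted as needed, and mixed into semi-synthetic diet at about 50° C. Single starved third-instar larvae per cell, held at 25° C., 70% RH; dead plus moribund larvae scored as percent mortality at 96 h.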

The subject of a further assay is Spodoptera litura. The assay can be described thus: Spodoptera litura diet incorporation method. Particulars: third instar larvae, dead and moribund combined, 96 h after release. As for the experimental part:
Test Solutions were Prepared According to the Procedure Described Herein Below (500 PPM):
• 1. Eppendorf Vortex mixer (ThermoMixer C) and 1.5 mL Eppendorf tubes • 2. Zirconia (Zirconium-Yttrium) beads having diameter of 0.8 to 1.0 mm • 3. Microscope • 4. Beaker 100 mL • 5. Micro-pipette Reagents: • 1. Surfactant Solution • 2. De-mineralized (DM) Water • 1. Weigh 10 mg of the compound of the present invention to be tested in an Eppendorf Tube. • 2. Add 200 mg of the Surfactant Solution into the tube. • 3. Add 600 mg of Zirconia beads into the above mixture. • 4. Fix the tube in Eppendorf Vortex mixer and start vortexing at 2000 rpm. • 5. Mix on Vortex mixer for 30 minutes. After 30 minutes, observe the sample over a microscope at 400× resolution. • 6. If the Maximum particle size is more than 5 μm or average particle size is more than 2 μm or the particle size distribution is uneven, continue vortexing for another 30 minutes and again check the particle size using the microscope. Continue till the average particle size is below 2 microns. • 7. When the required particle size is achieved, add 1.0 mL DM water into the tube, close the cap, shake the tube thoroughly and transfer the contents, along with the beads, into a beaker. • 8. To rinse the tube, add another 1.0 mL of DM water into the tube, close the cap, shake well and transfer this into the same beaker. • 9. Repeat Step no. 8 one more time so that the tube is rinsed well and the compound of the present invention to be tested is transferred to the beaker. • 10. Add 16.8 mL of DM water into the beaker and stir well. • 11. The homogeneous dispersion can then be decanted into a glass vial, immediately, to separate the Zirconia beads. • 12. Immediately use this sample for biological testing. • 13. Further dilutions can be prepared by taking appropriate quantity of the aliquot of Step 10, immediately after stirring, and diluting as per requirement. The sample solution must be well mixed just before biological testing.
Diet incorporation method was used, in which semi-synthetic diet was incorporated into the test solution when the temperature is approximately 50° C. in the bioassay containers and stirred thoroughly for properly mixing and then was allowed to cool for 30 min. The solidified diet was cut into equal pieces, and then each piece was transferred in one cell in Bio-assay trays. A single third instar starved larva was released into each of these cells of bioassay trays and the tray was covered with the lid. The bio-assay trays were kept under laboratory conditions at a temperature of 25° C. and Relative Humidity of 70%. Observations on dead, moribund and live larvae were recorded at 96 h after the release of larvae. Percent mortality was calculated by combining dead and moribund larvae. The following compound numbers

Regarding `COc1cc(C(=O)Nc2c(C)cc3ccnn3c2C(=O)NC2CSC2)n(-c2ncccc2Cl)n1` [Compound 215, 6-(1-(3-chloropyridin-2-yl)-3-methoxy-1H-pyrazole-5-carboxamido)-5-methyl-N-(thietan-3-yl)pyrazolo[1,5-a]pyridine-7-carboxamide], the mortality at 300 ppm in the assay with Plutella xylostella, with Helicoverpa armigera and with Spodoptera litura was more than 70% throughout.

As for `Cc1cc2ccnn2c(C(=O)NCC#N)c1NC(=O)c1cc(Br)nn1-c1ncccc1Cl` [Compound 28, 6-(3-bromo-1-(3-chloropyridin-2-yl)-1H-pyrazole-5-carboxamido)-N-(cyanomethyl)-5-methylpyrazolo[1,5-a]pyridine-7-carboxamide], the mortality at 300 ppm in the assay with Plutella xylostella, with Helicoverpa armigera and in the assay with Spodoptera litura was more than 70% throughout.

Consider `Cc1cc2ccnn2c(C(=O)NC(C)C)c1NC(=O)c1cc(Br)nn1-c1ncccc1Cl` [Compound 4, 6-(3-bromo-1-(3-chloropyridin-2-yl)-1H-pyrazole-5-carboxamido)-N-isopropyl-5-methylpyrazolo[1,5-a]pyridine-7-carboxamide], for which the mortality at 300 ppm with Plutella xylostella, in the assay with Helicoverpa armigera and with Spodoptera litura was more than 70% throughout.

As for `CONC(=O)c1c(NC(=O)c2cc(C(F)(F)F)nn2-c2ncccc2Cl)c(C)cc2ccnn12` [Compound 93, 6-(1-(3-chloropyridin-2-yl)-3-(trifluoromethyl)-1H-pyrazole-5-carboxamido)-N-methoxy-5-methylpyrazolo[1,5-a]pyridine-7-carboxamide], the mortality at 300 ppm in the assay on Plutella xylostella, in the assay on Helicoverpa armigera and in the assay with Spodoptera litura was more than 70% throughout.

Consider `CCCNC(=O)c1c(NC(=O)c2cc(OC)nn2-c2ncccc2Cl)c(C)cc2ccnn12` [Compound 29, 6-(1-(3-chloropyridin-2-yl)-3-methoxy-1H-pyrazole-5-carboxamido)-5-methyl-N-propylpyrazolo[1,5-a]pyridine-7-carboxamide], for which the mortality at 300 ppm in the assay with Plutella xylostella, in the assay with Helicoverpa armigera and in the assay on Spodoptera litura was more than 70% in each case.

`Cc1cc2ccnn2c(C(=O)NCCC#N)c1NC(=O)c1cc(Br)nn1-c1ncccc1Cl` [Compound 22, 6-(3-bromo-1-(3-chloropyridin-2-yl)-1H-pyrazole-5-carboxamido)-N-(2-cyanoethyl)-5-methylpyrazolo[1,5-a]pyridine-7-carboxamide]: the mortality at 300 ppm with Plutella xylostella, with Helicoverpa armigera and in the assay on Spodoptera litura was more than 70% throughout.

Regarding `C#CCNC(=O)c1c(NC(=O)c2cc(Br)nn2-c2ncccc2Cl)c(Br)cc2ccnn12` [Compound 57, 5-bromo-6-(3-bromo-1-(3-chloropyridin-2-yl)-1H-pyrazole-5-carboxamido)-N-(prop-2-yn-1-yl)pyrazolo[1,5-a]pyridine-7-carboxamide], the mortality at 300 ppm in the assay on Plutella xylostella, in the assay on Helicoverpa armigera and with Spodoptera litura was more than 70% in each case.

As to `CNC(=O)c1c(NC(=O)c2cc(C(F)(F)F)nn2-c2ncccc2Cl)c(C)cc2ccnn12` [Compound 63, 6-(1-(3-chloropyridin-2-yl)-3-(trifluoromethyl)-1H-pyrazole-5-carboxamido)-N,5-dimethylpyrazolo[1,5-a]pyridine-7-carboxamide], the mortality at 300 ppm in the assay on Plutella xylostella, in the assay with Helicoverpa armigera and in the assay on Spodoptera litura was more than 70% in each case.

For the compound `C#CCNC(=O)c1c(NC(=O)c2cc(OC)nn2-c2ncccc2Cl)c(C)cc2ccnn12` [Compound 45, 6-(1-(3-chloropyridin-2-yl)-3-methoxy-1H-pyrazole-5-carboxamido)-5-methyl-N-(prop-2-yn-1-yl)pyrazolo[1,5-a]pyridine-7-carboxamide], the mortality at 300 ppm with Plutella xylostella, in the assay on Helicoverpa armigera and in the assay with Spodoptera litura was more than 70% each time.

Consider `Cc1cc2ccnn2c(C(=O)NC(C)C)c1NC(=O)c1cc(C(F)(F)F)nn1-c1ncccc1Cl` [Compound 60, 6-(1-(3-chloropyridin-2-yl)-3-(trifluoromethyl)-1H-pyrazole-5-carboxamido)-N-isopropyl-5-methylpyrazolo[1,5-a]pyridine-7-carboxamide], for which the mortality at 300 ppm with Plutella xylostella, in the assay on Helicoverpa armigera and with Spodoptera litura was more than 70% throughout.

As for `Cc1cc2ccnn2c(C(=O)NCC(F)(F)F)c1NC(=O)c1cc(C(F)(F)F)nn1-c1ncccc1Cl` [Compound 109, 6-(1-(3-chloropyridin-2-yl)-3-(trifluoromethyl)-1H-pyrazole-5-carboxamido)-5-methyl-N-(2,2,2-trifluoroethyl)pyrazolo[1,5-a]pyridine-7-carboxamide], the mortality at 300 ppm in the assay on Plutella xylostella, with Helicoverpa armigera and with Spodoptera litura was more than 70% each time.

With `COc1cc(C(=O)Nc2c(C)cc3ccnn3c2C(=O)NCC#N)n(-c2ncccc2Cl)n1` [Compound 40, 6-(1-(3-chloropyridin-2-yl)-3-methoxy-1H-pyrazole-5-carboxamido)-N-(cyanomethyl)-5-methylpyrazolo[1,5-a]pyridine-7-carboxamide], the mortality at 300 ppm in the assay on Plutella xylostella, in the assay with Helicoverpa armigera and in the assay with Spodoptera litura was more than 70% each time.

`CCCNC(=O)c1c(NC(=O)c2cc(Br)nn2-c2ncccc2Cl)c(Br)cc2ccnn12` [Compound 50, 5-bromo-6-(3-bromo-1-(3-chloropyridin-2-yl)-1H-pyrazole-5-carboxamido)-N-propylpyrazolo[1,5-a]pyridine-7-carboxamide]: the mortality at 300 ppm in the assay with Plutella xylostella, in the assay with Helicoverpa armigera and in the assay with Spodoptera litura was more than 70% throughout.

For `COCC(C)(C)NC(=O)c1c(NC(=O)c2cc(Br)nn2-c2ncccc2Cl)c(C)cc2ccnn12` [Compound 174, 6-(3-bromo-1-(3-chloropyridin-2-yl)-1H-pyrazole-5-carboxamido)-N-(1-methoxy-2-methylpropan-2-yl)-5-methylpyrazolo[1,5-a]pyridine-7-carboxamide], the mortality at 300 ppm in the assay with Plutella xylostella, in the assay with Helicoverpa armigera and in the assay with Spodoptera litura was more than 70% in each case.

Regarding `Cc1cc2ccnn2c(C(=O)NC2COC2)c1NC(=O)c1cc(Br)nn1-c1ncccc1Cl` [Compound 35, 6-(3-bromo-1-(3-chloropyridin-2-yl)-1H-pyrazole-5-carboxamido)-5-methyl-N-(oxetan-3-yl)pyrazolo[1,5-a]pyridine-7-carboxamide], the mortality at 300 ppm in the assay on Plutella xylostella, in the assay on Helicoverpa armigera and in the assay on Spodoptera litura was more than 70% each time.

As for `Cc1cc2ccnn2c(C(=O)NC(C)C2CC2)c1NC(=O)c1cc(OC2CSC2)nn1-c1ncccc1Cl` (centres unmarked) [Compound 146, 6-(1-(3-chloropyridin-2-yl)-3-(thietan-3-yloxy)-1H-pyrazole-5-carboxamido)-N-(1-cyclopropylethyl)-5-methylpyrazolo[1,5-a]pyridine-7-carboxamide], the mortality at 300 ppm with Helicoverpa armigera and in the assay with Spodoptera litura was more than 70% each time.
